In ChEMBL document CHEMBL5729744, “Granzyme B directed imaging and therapy” (2023):
pIC50: −log10 of the molar value.

Biological target: Granzyme B (Homo sapiens, UniProt P10144)
Test: Biochemical Assay: Buffer pH7.4: Prepare 1 (M) KH2PO4 and 1 (M) K2HPO4. Titrate 1(M) K2HPO4 with 1 (M) KH2PO4 to obtain pH 7.40. Dilute this buffer 10 fold in Water (30 ml buffer+270 ml of water) to obtain 100 mM phosphate buffer. Adjust pH to 7.40±0.02 using 5(N) HCl or 5(N) NaOH. NADPH Regeneration System (NRS): Prepare a solution containing 13 mM NADP, 33 mM Glucose-6-phosphate, 33 mM MgCl2and 4 U/ml Glucose-6-phosphate dehydrogenase in buffer. Liver Microsome (LM) suspension: Thaw LM vial on ice, then mix 1.0 ml LM (20 mg/ml) with 19 ml buffer [final LM Conc: 1 mg/ml] LM+NRS suspension: Mix 5.0 ml NRS with 20 ml LM suspension [final LM Conc: 0.8 mg/ml] System suitability standard: a synthesized compound having Mol wt 686.2 used as System suitability standard. Dissolve this compound in ice-cold acetonitrile to obtain concentration of 0.1 μg/ml and store at 4° C. Compound Dilution: Compound Stock: 10 mM in DMSO Sub stock (100 μM): 4 μl of 10 mM Compound Stock+398 μl Acetonitrile. Working plate (2 μM): 10 μl of 100 μM Sub stock+490 μl buffer Assay Procedure Incubate all plastic materials including tips at 37° C. overnight. Incubate LM suspension and NRS at 37° C. for 15 min before use. Add 40 μl buffer to the wells of blank plate. Add 40 μl compound (from working plate) to 0, 5, 10, 20, 30 and 60 min plates. Initiate reaction by adding 40 μl of LM+NRS suspension in each plate. […]

Sequence of Granzyme B (P10144 whole entry): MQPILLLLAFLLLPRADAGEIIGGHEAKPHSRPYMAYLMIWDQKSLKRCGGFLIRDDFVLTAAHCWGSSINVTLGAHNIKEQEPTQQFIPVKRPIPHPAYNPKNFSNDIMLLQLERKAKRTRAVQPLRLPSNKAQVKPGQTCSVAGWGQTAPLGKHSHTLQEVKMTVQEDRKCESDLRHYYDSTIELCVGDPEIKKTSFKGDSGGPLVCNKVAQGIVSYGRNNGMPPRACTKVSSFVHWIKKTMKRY

With `O=C(Cc1ccccc1)NCC(=O)N[C@H]1CCc2cccc3c2N(C1=O)[C@H](C(=O)NCc1c[nH]nn1)C3` the pIC50 was less than 5.30.
